Results on four molecules are retold here after paper PMC10236072, “Microwave-assisted synthesis of [^52Mn]Mn-porphyrins: Applications in cell and liposome radiolabelling” (Nuclear Medicine and Biology, 2022).

Structures are written as SMILES. Like-named read-outs stand apart in the source and are kept apart here.

On the set-up of series [1]: method as in PMID 3821476. The conditions noted are these: up to 9 days, UV-spectroscopy; cited from earlier work.
Series [2] is described as follows: Log P (1-octanol/water partition, gamma counting). In kind it is physicochemical. The note with it: 1-octanol/H2O, mean ± SD, n = 3 (free 52Mn n = 2). As to the method: An aliquot (500 μL) of each layer was then added to an Eppendorf. An aliquot (20 μL) of the [^52Mn]Mn-porphyrin reaction mixture was then added to the two layers and vortexed for 5 min. After mixing, the suspension was […] briefly for 10 s to settle the layers, and 200 μL of each layer was extracted. The octanol and H2O layers were then gamma counted (Wallac CompuGamma) and the Log P was calculated as below: LogP=LogActivityCPMin octanol layer/ActivityCPMinwaterlayer

The nature of series [3]: Solubility in aqueous and organic solvents. In kind it is physicochemical.
In series [4] the test system is various cell lines. The note with it: cited from earlier work.

For the molecule `O=S(=O)([O-])c1ccc(-c2c3nc(c(-c4ccc(S(=O)(=O)[O-])cc4)c4ccc([n-]4)c(-c4ccc(S(=O)(=O)[O-])cc4)c4ccc([n-]4)c(-c4ccc(S(=O)(=O)[O-])cc4)c4nc2C=C4)C=C3)cc1.[Mn+3]` [Mn-(5)], the “stability in human plasma” value in series [1] is reported as “stable”.

In the case of `[Cl][52Mn][Cl]` [Buffered ^52Mn, [^52Mn]MnCl2], the “Log P value” in series [2] is recorded as −2.4 ± 0.7.

In the case of `CNS(=O)(=O)c1ccc(F)c(-c2c3nc(c(-c4c(F)ccc(S(=O)(=O)NC)c4F)c4ccc([nH]4)c(-c4c(F)ccc(S(=O)(=O)NC)c4F)c4nc(c(-c5c(F)ccc(S(=O)(=O)NC)c5F)c5ccc2[nH]5)C=C4)C=C3)c1F` [porphyrin 2], the solubility entry in series [3] is “favourable solubility in aqueous and organic solvents”; in series [3] (listed as Porphyrin 2) it was “favourable solubility in both aqueous and organic solvents”.

Regarding `[89Zr+4].[O-]c1cccc2cccnc12.[O-]c1cccc2cccnc12.[O-]c1cccc2cccnc12.[O-]c1cccc2cccnc12` [[^89Zr]Zr-oxine], the cellular retention result in series [4] (later timepoints (5–7 days)) is reported as “at least 30%”; in series [4] (various cell lines, after 24 h) it was over 65%.
